Laboratory results: patent publication US20250162973A1, “METHODS OF SYNTHESIS AND USES OF AGRIMOL COMPOUNDS” (Versitech Limited, priority 2022, published 2025)

What was measured:
[1] = biological target: HSP60 (Homo sapiens, UniProt P10809); assay: Tryptophan fluorescence quenching assay; settings: Stern-Volmer analysis; read-out: Kd of AGB binding to HSP60
Experimental: (§1) FIG. 5A is a volcano plot (ΔTm, p-value) for TPP data obtained from NCI-H460 cells with 4 μM AGB treatment for 1 h. The criteria were set as ΔTm>2° C. and p<0.05. FIG. 5B is a graph showing results of the tryptophan fluorescence quenching assay for the direct interaction between AGB and three target proteins. Upper, tryptophan fluorescence titration of recombinant proteins with AGB. […] For CS, its fluorescence decrease was saturated when AGB concentrations increased to about 32 μM. Lower, the normalized tryptophan intensities at an emission of 320 nm were plotted as a function of total added concentration of AGB. The dissociation constants (Kd) between AGB and three proteins were then calculated by fitting this plot with Stern-Volmer Equation. […] The fluorescence intensity was presented as percentage relative to control groups. […]
(§2) To further examine whether AGB interacts directly with the above three identified proteins, the intrinsic tryptophan fluorescence properties of these proteins were examined in the presence of AGB at different concentrations. Upon binding with AGB, proteins experience a change of the tryptophan environment, which can be visualized by fluorescence spectroscopy. As shown in FIG. 5B the tryptophan fluorescence of three proteins were all quenched by AGB in a concentration-dependent manner.

[2] = biological target: T1, TALDO1 (Homo sapiens, UniProt P37837); assay: Tryptophan fluorescence quenching assay; settings: Stern-Volmer analysis; read-out: Kd of AGB binding to TALDO1
T1 construct: endogenous in cells
T1 sequence (P37837 1-337): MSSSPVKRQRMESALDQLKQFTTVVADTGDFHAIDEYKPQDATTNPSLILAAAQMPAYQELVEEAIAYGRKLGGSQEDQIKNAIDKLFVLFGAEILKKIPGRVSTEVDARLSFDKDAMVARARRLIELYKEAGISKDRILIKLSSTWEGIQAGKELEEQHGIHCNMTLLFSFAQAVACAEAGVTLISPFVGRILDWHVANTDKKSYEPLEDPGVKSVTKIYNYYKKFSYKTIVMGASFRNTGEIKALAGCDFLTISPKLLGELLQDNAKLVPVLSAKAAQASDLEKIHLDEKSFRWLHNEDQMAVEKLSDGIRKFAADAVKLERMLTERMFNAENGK
Experimental: as §1, §2

[3] = biological target: T2, CS (Homo sapiens, UniProt O75390); assay: Tryptophan fluorescence quenching assay; format: binding
T2 sequence (O75390 28-466): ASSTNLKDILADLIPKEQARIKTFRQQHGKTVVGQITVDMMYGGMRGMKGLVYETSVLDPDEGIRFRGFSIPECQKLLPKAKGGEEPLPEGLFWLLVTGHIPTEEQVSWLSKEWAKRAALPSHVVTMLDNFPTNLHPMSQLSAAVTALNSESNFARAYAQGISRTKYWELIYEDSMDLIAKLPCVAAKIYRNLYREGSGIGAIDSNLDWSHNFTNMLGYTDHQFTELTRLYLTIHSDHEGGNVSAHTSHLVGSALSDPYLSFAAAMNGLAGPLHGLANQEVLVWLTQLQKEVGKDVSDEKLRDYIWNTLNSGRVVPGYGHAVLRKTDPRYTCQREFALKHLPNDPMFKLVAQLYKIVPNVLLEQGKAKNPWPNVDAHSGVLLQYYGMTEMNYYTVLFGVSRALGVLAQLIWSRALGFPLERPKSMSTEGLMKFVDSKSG
Experimental: as §1, §2

[4] = Maximum tolerated dose (MTD) determination, general toxicity and body weight; format: in vivo
Experimental: The MTD test in this study was done in collaboration with Tianjin Institute of Pharmaceutical Research (TIPR). […] A total of 80 mice were randomly assigned into four groups (10 male and 10 female mice in each group) in this study. Four groups included 16.0 mg/kg of AGB group, 12.8 mg/kg of AGB group, vehicle control group (10% DMSO+0.8% Tween-80 in normal saline), and the blank control group (normal saline).
Then, the body weights of surviving animals were measured on the 1st, 3rd, 7th and 14th days, respectively. At the end of experiment, the hematology, blood biochemistry, anatomical examination, and histopathology examination were performed in both vehicle control group and the MTD group (12.8 mg/kg). The data were presented as the mean±standard deviation.

[5] = test system: Hsp60 client Mito-RFP; assay: Mito-RFP / EGFP fluorescence in transfected cells; format: cell-based
[6] = test system: A549 xenograft; assay: Human tumor xenograft model; format: in vivo, nude mice; settings: AGB 3 mg/kg, tail intravenous injection
[7] = 16.0 mg/kg, about 1 hour after administration

Sequence of HSP60 (P10809 27-573): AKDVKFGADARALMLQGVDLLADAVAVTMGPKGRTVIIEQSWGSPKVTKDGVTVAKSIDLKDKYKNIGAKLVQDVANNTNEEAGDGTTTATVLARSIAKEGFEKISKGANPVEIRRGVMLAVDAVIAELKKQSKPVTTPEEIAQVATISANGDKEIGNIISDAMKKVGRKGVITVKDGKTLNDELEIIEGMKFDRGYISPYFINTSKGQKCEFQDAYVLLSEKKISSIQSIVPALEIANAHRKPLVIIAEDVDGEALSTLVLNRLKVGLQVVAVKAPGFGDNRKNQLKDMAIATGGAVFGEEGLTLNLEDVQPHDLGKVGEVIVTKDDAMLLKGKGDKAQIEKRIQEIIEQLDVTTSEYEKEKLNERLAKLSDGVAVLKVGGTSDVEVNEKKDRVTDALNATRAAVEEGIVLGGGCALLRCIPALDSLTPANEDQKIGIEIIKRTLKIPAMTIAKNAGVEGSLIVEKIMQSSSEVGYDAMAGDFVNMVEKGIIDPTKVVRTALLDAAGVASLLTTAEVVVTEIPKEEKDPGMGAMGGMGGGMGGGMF

Work on `CCCC(=O)c1c(O)c(Cc2c(O)c(Cc3c(O)c(C)c(OC)c(C(=O)CCC)c3O)c(O)c(C(=O)[C@@H](C)CC)c2O)c(O)c(C)c1OC` [AGB, Agrimol B] yielded a Kd [1] of 27 µM, a Kd [2] of 22.7 µM and a Kd ([3]; Stern-Volmer analysis, read-out: Kd of AGB binding to CS) of 4.9 µM. The “AGB concentration at which the CS fluorescence decrease was saturated” value ([3]; tryptophan fluorescence titration) was “about 32 μM”, the “body weight of female mice” value ([4]; 12.8 mg/kg, d 0, mean ± SD) was 20.52 ± 1.00 g and the “body weight of male mice” value ([4]; 12.8 mg/kg, d 0, mean ± SD) was 21.16 ± 1.07 g. The “body weight of female mice” value ([4]; 12.8 mg/kg, d 1, mean ± SD) was 20.60 ± 1.18 g, the “body weight of male mice” value ([4]; 12.8 mg/kg, d 1, mean ± SD) was 21.27 ± 1.46 g and the “body weight of female mice” value ([4]; 12.8 mg/kg, d 3, mean ± SD) was 21.14 ± 0.99 g. The “body weight of male mice” value ([4]; 12.8 mg/kg, d 3, mean ± SD) was 21.89 ± 1.51 g, the “body weight of female mice” value ([4]; 12.8 mg/kg, d 7, mean ± SD) was 23.68 ± 1.83 g and the “body weight of male mice” value ([4]; 12.8 mg/kg, d 7, mean ± SD) was 25.64 ± 1.54 g. The “body weight of female mice” value ([4]; 12.8 mg/kg, d 14, mean ± SD) was 26.38 ± 1.63 g, the “body weight of male mice” value ([4]; 12.8 mg/kg, d 14, mean ± SD) was 31.60 ± 2.37 g and the “symptoms of toxic reactions” value ([4]; 12.8 mg/kg, day of dosing and recovery period) was “No symptoms of toxic reactions were observed”. For the same molecule, the “animals with reduced activities” value ([4]; 16.0 mg/kg, about 30 minutes after administration) was 13/20, the mice appearing prone [4, 7] was 3/20 and the mice with ptosis [4, 7] was 1/20. For the same molecule, the “body weight of female mice” value ([4]; 16.0 mg/kg, d 0, mean ± SD) was 20.57 ± 0.90 g, the “body weight of male mice” value ([4]; 16.0 mg/kg, d 0, mean ± SD) was 21.24 ± 0.58 g and the “body weight of female mice” value ([4]; 16.0 mg/kg, d 1, mean ± SD) was 18.76 ± 0.89 g. The “body weight of male mice” value ([4]; 16.0 mg/kg, d 1, mean ± SD) was 19.64 ± 1.15 g, the “body weight of female mice” value ([4]; 16.0 mg/kg, d 3, mean ± SD) was 19.61 ± 1.50 g and the “body weight of male mice” value ([4]; 16.0 mg/kg, d 3, mean ± SD) was 20.04 ± 1.42 g. For the same molecule, the “body weight of female mice” value ([4]; 16.0 mg/kg, d 7, mean ± SD) was 22.76 ± 1.26 g, the “body weight of male mice” value ([4]; 16.0 mg/kg, d 7, mean ± SD) was 24.25 ± 1.48 g and the “body weight of female mice” value ([4]; 16.0 mg/kg, d 14, mean ± SD) was 25.61 ± 0.87 g. The “body weight of male mice” value ([4]; 16.0 mg/kg, d 14, mean ± SD) was 31.48 ± 1.73 g, the MTD at 14 day ([4]; both sexes, mouse, in vivo, iv, single i.v. injection, ICR mice) was 12.8 mg/kg and the EGFP fluorescence ([5]; cells transfected with EGFP-expressing construct) was “did not show changes in fluorescence”. For the same molecule, the “mitochondrial fluorescence (Mito-RFP) vs vehicle” value ([5]; cells transfected with Mito-RFP) was “significant reduction of mitochondrial fluorescence” and the “tumor growth inhibition rate” value [6] was 60%.
